Where two headings read alike, the source gives them in different places. Each block holds one compound with its values, some of them ahead of it.
Tests used:
[1] = for Concentration, Aqueous Phase / Concentration, Oil Phase: 600 mg drug in 20 g soy bean oil + 20 g DI water, stirred at room temperature 24 hours, HPLC; for pH of aqueous phase: aqueous phase at end of partition study; for O/W partition ratio: soy bean oil / DI water, room temperature 24 hours
Description: In order to determine percentage of clopidogrel partitioning in oil and aqueous phases, a partition study was conducted using clopidogrel biosulfate and clopidogrel free base. 600 mg of drug was weighed out and added to a beak containing equal weight of soy bean oil and DI water (20 g each). Stir the mixture in room temperature for 24 hours. At the end of study, samples from both phases were withdrawn and tested by HPLC as described in Example 14. The pH of the aqueous phase were measured.

[2] = cited from earlier work
platelet aggregation = conditions: cited from earlier work
[3] = 5 min
From the text: As used herein the disease or condition refers to any disease or condition which may be treated using clopidogrel containing medicine for the prevention of atherothrombotic events such as myocardial infarction, stroke, peripheral arterial disease, acute coronary syndrome, and cardio-vascular death.

[4] = cited from earlier work; remark: listed apart in the source

Concentration, Aqueous Phase [1]: 15000 µg/mL
Concentration, Oil Phase [1]: 17000 µg/mL
pH of aqueous phase [1]: 2
clopidogrel staying in the aqueous phase ([1]; soy bean oil / DI water partition study): about 50%
O/W partition ratio [1]: 1.1
Structure (SMILES): COC(=O)[C@H](c1ccccc1Cl)N1CCc2sccc2C1 [Clopidogrel bisulfate]
stability under increased moisture and temperature ([2]; listed as clopidogrel biosulfate): relatively unstable

Concentration, Aqueous Phase [1]: 6 µg/mL
Concentration, Oil Phase [1]: 29000 µg/mL
pH of aqueous phase [1]: 7
amount of clopidogrel in the aqueous phase ([1]; soy bean oil / DI water partition study, result in words): negligible
O/W partition ratio [1]: 4833
degradation in diluted NaOH solution [3]: degraded completely in 5 minutes
Structure (SMILES): COC(=O)[C@H](c1ccccc1Cl)N1CCc2sccc2C1 [Clopidogrel free base, methyl (+)-(S)-α-(o-chlorophenyl)-6,7-dihydrothieno[3,2-c]pyridine-5(4H)-acetate]
biological / pharmacological activity (platelet aggregation): biologically active
solubility in ethyl ether ([2]; ethyl ether): practically insoluble
stability under increased moisture and temperature [2]: unstable
solubility in methanol ([2]; methanol): dissolves freely
solubility in methylene chloride ([2]; methylene chloride): dissolves sparingly
solubility at pH 1 ([2]; pH 1): freely soluble
solubility in water at neutral pH ([2]; water, neutral pH): practically insoluble

Structure (SMILES): O=C(O)[C@H](c1ccccc1Cl)N1CCc2sccc2C1 [Impurity A]
biological / pharmacological activity (platelet aggregation): no pharmacological activity

Structure (SMILES): COC(=O)[C@@H](c1ccccc1Cl)N1CCc2sccc2C1 [Impurity C, methyl ( )-(R)-(o-chlorophenyl)-6,7-dihydrothieno[3,2-c]pyridine-5(4H)-acetate]
convulsions ([4]; high doses of animals): can evoke convulsions
tolerability ([4]; in vivo): poorly tolerated
anti-aggregation activity (platelet aggregation): does not exhibit any anti-aggregation activity
